In patent US6906108B2, “Extracts of vetiver oil as repellent and toxicant to ants, ticks, and cockroaches” (Board of Supervisors of Louisiana State University and …, priority 2001, dated 2005):

What was measured:
[1] = system: ticks (Ixodes scapularis); assay: Tick Petri dish bioassay with treated sand (repellency and toxicity); type: in vivo
Experimental: To test the effectiveness of nootkatone against ticks, ticks (Ixodes scapularis) were collected from Idlewild, La. Nootkatone efficiacy was tested relative to a known repellent, N,N-diethyl-m-toluamide (“Deet”). REPEL®, which contains 27.55% Deet, was purchased locally from a retail garden store.
The bioassay was conducted using Petri dishes (5 cm diameter and 1 cm height). To ensure adequate moisture for the ticks, 1 ml of a hot agar solution (1.5% in H2O) was spread evenly on the inside surfaces of the Petri dish, including the top, bottom, and edges. After the agar cooled, sand that was treated as described below was spread evenly on the inside surfaces of the Petri dish. The sand was held in place by the agar.
For the treated sand, either 2 mg nootkatone or 100 mg REPEL® was initially dissolved in 2 ml ethanol, and then 200 μl of the solution was mixed with 2 g sand that had been autoclaved and cooled. The control was autoclaved sand with 200 μl ethanol only added. One half of the surfaces in the Petri dishes were covered with 2 g treated sand, and the other half with 2 g untreated sand. In the nootkatone-treated Petri dishes, the final concentration was 200 μg/dish; while in the Deet treated Petri dishes, the final concentration was 2.75 mg/dish. Control Petri dishes were prepared by covering all sides with untreated sand. One tick was added to each Petri dish, and the top replaced. The number of replicates were as follows: control, 6; nootkatone, 9; and Deet, 8. […] Repellent activity was noted if the tick was found on the untreated side of the Petri dish. The ticks in the control Petri dishes were randomly distributed on the left and right sides.
The above experiment was repeated with ticks (Ix. scapularis) collected from Hammond, La. The number of replicates in this experiment were as follows: controls, 8; nootkatone, 10; and Deet, 8.

[2] = system: cat fleas (Ctenocephalides felis (Bouche)); assay: Cat flea Petri dish filter paper bioassay (repellency and mortality); type: in vivo
Experimental: To test the effectiveness of nootkatone against fleas, cat fleas (Ctenocephalides felis (Bouche)) were collected from a flea colony at St. Gabriel, La.
Petri dishes (5 cm diameter and 1 cm height) were prepared by lining one half of the top and the bottom with a half circle of filter paper (55 mm), and lining the other half with a second half circle of filter paper. For the treated Petri dishes, 50 mg nootkatone or 100 mg REPEL® were dissolved in 0.5 ml ethanol. […] Ten replicate Petri dishes were used for each of the treatments. The ethanol solution was added to the filter paper on the top and bottom and dried for 10 min. To place the fleas in the Petri dishes, fleas were temporarily immobilized by placing them at −20° C. for 5 min. The number of fleas in each Petri dish varied: for the 10 control Petri dishes, the average number in each dish was 10.2, with a range of 4 to 23; for 0.2 mg nootkatone, the average number in each dish was 8.5, with a range of 5 to 18; for 1 mg nootkatone, the average number in each dish was 10.6, with a range of 6 to 21; for 2 mg nootkatone, the average number in each dish was 11.1, with a range of 9 to 15 (Fleas could be counted in only 9 Petri dishes; one had too many fleas to count); and for 2.76 mg Deet, the average number in each dish was 6.7, with a range of 5 to 9.
The number of fleas on each side of each Petri dish was counted at 1 hr, 2 hr, 3 hr, 4 hr, 24 hr, 48 hr, 72 hr, and 96 hr.

[3] = 200 μg/dish vs 2.75 mg/dish Deet
[4] = 200 μg/dish, 10 replicates, ticks from Hammond
[5] = 200 μg/dish, ticks from Hammond

C=C(C)C1CCC2=CC(=O)CC(C)C2(C)C1 (stereo not drawn) [nootkatone, 4,4a,5,6,7,8-hexahydro-6-isopropenyl-4,4a-dimethyl-2(3H)-naphthalone]
Overall activity against ticks ([1]; 200 μg/dish): effective repellent and toxicant
Duration of repellent activity compared with Deet [1, 3]: longer than Deet
Toxicant strength compared with Deet [1, 3]: stronger toxicant than Deet
Ticks dead after 90 hr (number) ([1]; 200 μg/dish, 9 replicates, one tick per dish, ticks from Idlewild): four
Ticks dead at 24 hr (number) [1, 4]: one
Ticks dead at 72 hr (number) [1, 4]: four
Ticks dead at 96 hr (number) [1, 4]: nine
Ticks dead at 72 hr (percent) [1, 5]: 40%
Ticks dead at 96 hr (percent) [1, 5]: 90%
Ticks dead after 90 hr (percent) ([1]; 200 μg/dish, ticks from Idlewild): 50%
Percent Flea Mortality ([2]; 0.2 mg per dish, 1 hr): 0%
Percent Flea Mortality ([2]; 0.2 mg per dish, 2 hr): 0%
Percent Flea Mortality ([2]; 0.2 mg per dish, 3 hr): 0%
Percent Flea Mortality ([2]; 0.2 mg per dish, 4 hr): 0%
Percent Flea Mortality ([2]; 0.2 mg per dish, 24 hr): 22%
Percent Flea Mortality ([2]; 0.2 mg per dish, 48 hr): 45%
Percent Flea Mortality ([2]; 0.2 mg per dish, 72 hr): 72%
Percent Flea Mortality ([2]; 0.2 mg per dish, 96 hr): 79%
Repellent activity against fleas ([2]; 0.2 mg, 1 mg and 2 mg per dish): no repellent activity
Toxicant activity against fleas ([2]; 0.2 mg, 1 mg and 2 mg per dish): only delayed toxicant activity
Percent Flea Mortality ([2]; 1 mg per dish, 1 hr): 0%
Percent Flea Mortality ([2]; 1 mg per dish, 2 hr): 0%
Percent Flea Mortality ([2]; 1 mg per dish, 3 hr): 16%
Percent Flea Mortality ([2]; 1 mg per dish, 4 hr): 38%
Percent Flea Mortality ([2]; 1 mg per dish, 24 hr): 66%
Percent Flea Mortality ([2]; 1 mg per dish, 48 hr): 92%
Percent Flea Mortality ([2]; 1 mg per dish, 72 hr): 89%
Percent Flea Mortality ([2]; 1 mg per dish, 96 hr): 98%
Percent Flea Mortality ([2]; 2 mg per dish, 1 hr): 0%
Percent Flea Mortality ([2]; 2 mg per dish, 2 hr): 0%
Percent Flea Mortality ([2]; 2 mg per dish, 3 hr): 26%
Percent Flea Mortality ([2]; 2 mg per dish, 4 hr): 50%
Percent Flea Mortality ([2]; 2 mg per dish, 24 hr): 77%
Percent Flea Mortality ([2]; 2 mg per dish, 48 hr): 84%
Percent Flea Mortality ([2]; 2 mg per dish, 72 hr): 91%
Percent Flea Mortality ([2]; 2 mg per dish, 96 hr): 94%
